For four molecules, IC50 and Imax results are on record in ChEMBL document CHEMBL1781981, “Identification of a novel series of 3-piperidinyl-5-sulfonylindazoles as potent 5-HT6 ligands” (Bioorg Med Chem Lett, 2009).

The structures appear in SMILES notation.

The target of this test is 5-hydroxytryptamine receptor 6 (Homo sapiens, UniProt P50406). The test can be described thus: Antagonist activity at human 5HT6 receptor expressed in HeLa cells assessed as inhibition of 5-HT-induced cAMP accumulation. Type of test: functional, cell-based. On the technique in general: cAMP levels reflect the balance of adenylyl cyclase and phosphodiesterase activity.
5-hydroxytryptamine receptor 6, sequence (P50406 whole entry): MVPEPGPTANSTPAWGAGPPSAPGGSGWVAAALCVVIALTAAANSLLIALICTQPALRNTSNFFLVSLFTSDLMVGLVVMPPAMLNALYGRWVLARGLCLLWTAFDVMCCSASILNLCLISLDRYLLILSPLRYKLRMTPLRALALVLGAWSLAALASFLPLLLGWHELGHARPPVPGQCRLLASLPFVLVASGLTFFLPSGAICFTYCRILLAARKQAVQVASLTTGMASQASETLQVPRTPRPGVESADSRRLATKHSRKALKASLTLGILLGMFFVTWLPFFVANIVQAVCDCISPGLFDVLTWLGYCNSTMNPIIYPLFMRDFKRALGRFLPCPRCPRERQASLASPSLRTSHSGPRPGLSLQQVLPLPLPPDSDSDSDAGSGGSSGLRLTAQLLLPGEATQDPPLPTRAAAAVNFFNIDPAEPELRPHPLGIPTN

For `CC(C)c1ccc(S(=O)(=O)c2ccc3[nH]nc(C4CCN(C)CC4)c3c2)cc1`, the half-inhibitory concentration (IC50) (as a rule, the midpoint of a concentration-inhibition curve) was 108 nM and the Imax amounted to 100%.
`CN1CCC(c2n[nH]c3ccc(S(=O)(=O)c4cccc(Cl)c4)cc23)CC1`: the IC50 was 754 nM and the Imax was 95%.
In the same order, the values of `CN1CCC(c2n[nH]c3ccc(S(=O)(=O)c4ccc5ccccc5c4)cc23)CC1` are 102 nM and 100%.
The like results for `CN1CCC(c2n[nH]c3ccc(S(=O)(=O)c4cccc5ccccc45)cc23)CC1` were, in that order, 251 nM and 100%.
